Results taken from PMC10726354, “Design, Synthesis, and Biological Evaluation of Small-Molecule-Based Radioligands with Improved Pharmacokinetic Properties for Imaging of Programmed Death Ligand 1” (Journal of Medicinal Chemistry, 2023).
Several values for one entry are separate records, joined by “and”; a condition that tells them apart may be missing. Identical values can stand only once. Like-named read-outs stand apart in the source and are kept apart here.

Legend:
[1] = molecular target: T1, PD-L1 (Homo sapiens, UniProt Q9NZQ7); assay: Saturation binding assay on live PC3 PD-L1 overexpressing cells
T1 construct: expressed in transfected cells; host or cells: PC3 cells (human prostate carcinoma), stably transduced
Procedure: For assessing the binding affinity of compounds [^64Cu]Cu-1–6, PC3 cells transduced with PD-L1 were used. Dissociation constants in equilibrium (KD) and maximum number of binding sites (Bmax) were determined in a saturation binding assay. The assays were performed with the addition of 2.5% bovine serum albumin (BSA) in the medium to prevent unspecific binding to plastic wells, as reported previously for our first radioligands.[1]
For saturation binding, cells were trypsinized (0.05% Trypsin–EDTA, Gibco, USA), counted, and diluted to ∼160,000 cells/mL. 0.25 mL of the cell solution was then added to each well of a 48-well plate (Falcon Multiwell #353078) and grown for at least 2 days.
To determine the affinity (KD) and the number of binding sites (Bmax) of the herein described PD-L1 small-molecule ligands, saturation binding was performed in at least three independent experiments, as described before.[45] Cells were brought to room temperature followed by cooling on ice (each 15 min). The medium was removed and replaced with 200 μL assay buffer [PBS + 2.5% (w/v) BSA] for total binding (TB) conditions or assay buffer containing 300 μM BMS-1166 (in DMSO, resulting in 0.03% v/v) for the assessment NSB. After 15 min preincubation, 200 μL of each of the eight serial 1:1 dilutions (500 to 3.91 nM) of the respective radioligand was added (in triplicate). Cells were then incubated for 90 min at 4 °C, washed (3 × 1 min), and lysed in 500 μL of 0.1 M NaOH + 1% SDS. Radioactivity of the lysate was measured and decay corrected to a reference time (end of radiolabeling). An additional plate was subjected to the same conditions (preincubation, incubation, and washing) using PBS without BSA for each experiment, and the protein content of these lysates was determined by BCA assay. From CPM measurements, final values (pmol/mg protein) were calculated using the mean protein content and molar activity.
Processed data were then subjected to nonlinear iterative curve fitting (GraphPad Prism 9) to yield Bmax (in pmol/mg protein) and KD (in nM).

[2] = Kinetic stability in PBS buffer (pH 7.4), radio-HPLC; assay type: physicochemical; conditions: room temperature; for intact radioligand in PBS (pH 7.4): radio-HPLC at 1, 24 and 48 h
Procedure: The kinetic stability of all ^64Cu-labeled ligands was investigated in PBS buffer solution (pH 7.4) by incubation at room temperature and monitoring with radio-HPLC up to 48 h. […] During the time course, no changes in peak number/shape and retention time were observed, proving the stability of the compounds. […] At the 48 h time point, however, a shoulder appears with a slightly higher retention time (∼7.0 min), indicating minor decomposition (>94% intact radiotracer).
The corresponding radiotracer was labeled with approximately 500 MBq of ^64Cu in 50 μL of HEPES solution (adjusted to pH 4.5), as described above. After successful labeling, 450 μL of PBS solution (pH 7.4) was added, and the incubation was performed (room temperature) at 300 rpm. At each time point (1, 24, and 48 h), an aliquot was withdrawn and injected into the radio-HPLC (PerkinElmer, Massachusetts, United States system C or D, Supporting Information). Evaluation and graphical plotting were performed with OriginPro 9.0.

[3] = Proteolytic stability in human serum, radio-HPLC; assay type: in vitro ADME; conditions: 37 °C
Procedure: Potential degradation of the ^64Cu-labeled radiotracers by proteolysis was investigated by incubation in human serum at 37 °C for up to 48 h. At three different time points (1, 24, and 48 h), a sample was withdrawn, and serum proteins were precipitated. The radio-HPLC chromatograms of all ^64Cu-labeled radiotracers (Figure S111A–D, system D) show a major peak at ∼6.4–6.7 min indicating the radiotracers. After 1 h, the radiotracers [^64Cu]Cu-3–6 are 94.1, 98.3, 94.0, and 96.3% intact, respectively.
Similar to PBS stability studies, the mixture containing the radiolabeled compound was diluted 1:10 with human serum. The solution was incubated at 37 °C with shaking at 300 rpm. At each time point (1, 24, and 48 h), an aliquot was withdrawn and added to a double amount of “supersol” (water containing 20% v/v EtOH, 5% v/v 5 mM aqueous EDTA, 0.5% v/v Triton X-100, 0.1% m/v saponin, 0.05% v/v 0.5 mM aqueous o-phenanthroline) to precipitate serum proteins. The suspension was cooled on ice for 5 min and then centrifugated for 5 min at 12,000g. A small amount of the supernatant was analyzed by radio-HPLC (PerkinElmer, Massachusetts, United States system D, Supporting Information). Evaluation and graphical plotting were performed with OriginPro 9.0.

[4] = Metabolite analysis in vivo; design: species or system mouse; conditions: 4 h postinjection
[5] = log D7.4 shake flask method, n-octanol/PBS; assay type: physicochemical; conditions: n-octanol/PBS pH 7.4, shake flask; mean ± SD, three experiments
Procedure: For assessing the lipophilicity of the ^64Cu-labeled PD-L1 radioligands, distribution coefficients (log D7.4 values) were determined using the shake flask method between n-octanol and PBS buffer (pH 7.4).
n-Octanol/water distribution coefficients were determined by the shake-flask method. The experiments for each radioligand was performed in triplicate. 30 μL of the reaction mixture was added to a 1.5 mL Eppendorf tube, which contained 570 μL of PBS (pH 7.4) and 600 μL n-octanol. After shaking at room temperature at 1500 rpm for 5 min, the mixture was centrifugated. An aliquot for each phase was carefully withdrawn, and the count rates were measured using a γ-counter (ISOMED2160 sodium iodide crystal detector). The mean values were calculated, corrected for the background activity, and the log D7.4 value was calculated with following formula [drawing 1]

[6] = saturation binding, live PC3 PD-L1 overexpressing cells, 2.5% BSA, 90 min at 4 °C, mean ± SD, at least three experiments, read-out: KD
[7] = saturation binding, live PC3 PD-L1 overexpressing cells, 2.5% BSA, mean ± SD
[8] = supplementary CSV, read-out: KD [nM], saturation binding assay

T1 sequence (Q9NZQ7 19-290): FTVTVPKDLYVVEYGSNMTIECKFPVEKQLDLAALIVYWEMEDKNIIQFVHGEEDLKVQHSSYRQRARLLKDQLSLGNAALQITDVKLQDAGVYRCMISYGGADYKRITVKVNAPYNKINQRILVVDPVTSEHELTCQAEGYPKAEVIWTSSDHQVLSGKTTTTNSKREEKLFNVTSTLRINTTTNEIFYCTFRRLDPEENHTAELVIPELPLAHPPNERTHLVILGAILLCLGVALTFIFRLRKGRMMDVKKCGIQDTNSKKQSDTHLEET

Structure (SMILES)	Kd [1, 6]	Bmax (maximum number of binding sites) [1, 7]	intact radioligand in PBS (pH 7.4) [2] [%]	intact radiotracer in human serum after 1 h [3] [%]	stability in circulation (metabolite analysis) [4]	Kd [1, 8] [nM]	log D7.4 [5]	intact radiotracer in PBS (pH 7.4) at 48 h ([2]; 48 h) [%]	intact radiotracer in human serum at 48 h ([3]; 48 h) [%]
Cc1c(COc2cc(OCc3cncc(C#N)c3)c(CN[C@@H](CS(=O)(=O)O)C(=O)NCCS(=O)(=O)O)cc2Cl)cccc1-c1cccc(OCc2cn(CCCN3CCN(C(=O)[C@H](CS(=O)(=O)O)NC(=O)CC[C@H](C(=O)O)N4CCN(CC(=O)O)CCN(CC(=O)O)CC4)CC3)nn2)c1C.[64Cu+2] [[^64Cu]Cu-1]	80.5 ± 5.02 nM	7.05 pmol·mg^–1 and 7.05 ± 0.99 pmol·mg^–1	–	–	–	–	–	–	–
Cc1c(COc2cc(OCc3cncc(S(C)(=O)=O)c3)c(CN[C@@H](CS(=O)(=O)O)C(=O)NCCS(=O)(=O)O)cc2Cl)cccc1-c1cccc(OCc2cn(CCCN3CCN(C(=O)[C@H](CS(=O)(=O)O)NC(=O)CC[C@H](C(=O)O)N4CCN(CC(=O)O)CCN(CC(=O)O)CC4)CC3)nn2)c1C.[64Cu+2] [[^64Cu]Cu-3]	93.7 ± 10.8 nM	8.51 ± 0.48 pmol·mg^–1	> 99	94.1	overall stability of the compound in circulation	–	–	–	–
Cc1c(COc2cc(OCc3cncc(S(C)(=O)=O)c3)c(CN[C@@H](CS(=O)(=O)O)C(=O)NCCP(=O)(O)O)cc2Cl)cccc1-c1cccc(OCc2cn(CCCN3CCN(C(=O)CC[C@H](C(=O)O)N4CCN(CC(=O)O)CCN(CC(=O)O)CC4)CC3)nn2)c1C.[64Cu+2] [[^64Cu]Cu-4]	82.4 ± 7.42 nM	10.7 pmol·mg^–1 and 10.7 ± 1.34 pmol·mg^–1	> 99	98.3	–	112	–3.07 ± 0.02	–	–
Cc1c(COc2cc(OCc3cncc(S(C)(=O)=O)c3)c(CN[C@@H](CS(=O)(=O)O)C(=O)NCCP(=O)(O)O)cc2Cl)cccc1-c1cccc(OCc2cn(CCCN3CCN(C(=O)[C@H](CS(=O)(=O)O)NC(=O)CC[C@H](C(=O)O)N4CCN(CC(=O)O)CCN(CC(=O)O)CC4)CC3)nn2)c1C.[64Cu+2] [[^64Cu]Cu-5]	112 ± 11 nM	19.1 pmol·mg^–1 and 19.1 ± 0.67 pmol·mg^–1	> 99	94.0	–	82.4	–	–	–
Cc1c(COc2cc(OCc3cncc(S(C)(=O)=O)c3)c(CN[C@@H](CS(=O)(=O)O)C(=O)NCCP(=O)(O)O)cc2Cl)cccc1-c1cccc(OCc2cn(CCCN3CCN(C(=O)[C@H](CP(=O)(O)O)NC(=O)CC[C@H](C(=O)O)N4CCN(CC(=O)O)CCN(CC(=O)O)CC4)CC3)nn2)c1C.[64Cu+2] [[^64Cu]Cu-6]	532 nM and 533 nM	10.3 ± 0.74 pmol·mg^–1	> 99	96.3	–	–	–4.28 ± 0.08	> 94	93.4
